Columns and labels:
SCD-1 = SCD-1 (Homo sapiens, UniProt O00767); experiment: Direct inhibition of SCD-1 activity; format: biochemical; conditions: data not shown
S6K = experiment: Western blot of pS6K (T389); format: cell-based, human; conditions: 24 hours
Procedure: (§1) FIGS. 3D and G show SBI-477-mediated increase in glucose uptake in oleate-loaded skeletal myotubes (FIG. 3D) SBI-477 increases glucose uptake in oleate-loaded human skeletal myotubes. Basal and insulin-stimulated [3H]2-DG uptake was measured in human skeletal myotubes following treatment with SBI-477 for 24 hours in the presence of 100 μM oleate or BSA as a control. *p<0.05 vs. vehicle, †p<0.05 vs. vehicle/insulin by one-way ANOVA with Bonferroni post hoc test. FIG. 3G—Western blot analysis (left) of human myotubes treated with SBI-477 for 24 hours was performed to determine activation of S6K and AMPK using the indicated phospho-specific antibodies. Insulin treatment (100 nM) for 30 minutes was used as positive control. Quantitation (right) of the Western blot data is shown (n=4-5). *p<0.05 vs. Vehicle by one-way ANOVA with Bonferroni post hoc test. The data represent mean±SD.
(§2) Cells were lysed in the RIPA buffer containing 1% NP-40, 5 mM Na4P2O7, 1 mM EDTA, 20 mM NaF, 2 mM Na3VO4, 1× cOmplete™ protease inhibitor (Roche) and 1 mM phenylmethylsulfonyl fluoride. Whole cell lysates were subjected to SDS-PAGE and transferred to a nitrocellulose membrane. The blots were hybridized with specific antibodies and developed with enhanced chemiluminescence kit (Pierce). […] Protein quantification was performed using FluorChemQ (Alpha Innotech) and normalized to […]-actin or total protein where indicated.

[1] = test system: fatty acid transporter, CD36; experiment: CD36 gene expression; format: cell-based; conditions: data not shown
Procedure: (§3) Total RNA was isolated using RNeasy Mini Kit (Qiagen) according to the manufacturer's instructions. cDNA was synthesized using the Affinity Script cDNA Synthesis Kit (Stratagene) with 0.5 μg of total RNA. PCR reactions were performed in triplicate […] Roche LightCycler® 480 Instrument II) with specific primers for each gene.

rat H9c2 myocytes = experiment: Inhibition of TAG accumulation in rat H9c2 myocytes; format: cell-based; conditions: data not shown
AMPK = experiment: Western blot of AMPK activation; format: cell-based, human; conditions: 24 hours
Procedure: as §1, §2

ARRDC4 = ARRDC4 expression by quantitative RT-PCR in human myotubes; format: cell-based; conditions: 24 hours
Procedure: FIGS. 4A-C show downregulation of TXNIP and ARRDC4 expression by SBI-477. (FIG. 4A) TXNIP and ARRDC4 mRNA levels as determined by quantitative RT-PCR in human myotubes treated with SBI-477 (10 μM) or DGAT1 inhibitor (DGATi, […]) for 24 hours in the absence or presence of 100 μM oleate (n=4). Expression is shown relative to vehicle/BSA treatment. (FIG. 4B) TXNIP gene expression following exposure to a dose range of SBI-477 for 24 hours (n=4). (FIG. 4C) Left, Effect of SBI-477 on TXNIP protein levels as determined by western blot analysis by SBI-477. Right, Quantitation of the TXNIP western blot data is shown (n=5). *p<0.05 vs. Vehicle/BSA control, †p<0.05 vs. Vehicle/oleate by one-way ANOVA with Bonferroni post hoc test. The data are shown as mean±SD.
as §3

[2] = test system: primary murine skeletal myocytes; experiment: TAG accumulation in primary murine skeletal myocytes; format: cell-based; conditions: Mus musculus; primary murine skeletal myocytes; read-out: Activity Score (IC50), triacylglyceride (TAG) accumulation
[3] = test system: insulin receptor substrate 1 (IRS-1); experiment: Western blot of IRS-1 phosphorylation; format: cell-based, human; conditions: 24 hours
Procedure: FIGS. 3A, B, C, E and F show SBI-477 stimulation of glucose uptake and activates insulin signaling in the absence of insulin. Human skeletal myotubes were incubated with SBI-477 at the indicated concentration for 24 hours and then treated with or without insulin (100 nM) for 30 minutes. Glucose ([3H]-2-deoxyglucose, 2-DG) uptake (FIG. 3A) and glycogen synthesis rates (FIGS. 3B and 3C) were measured (n=5) as described in Methods. *p<0.05 vs. Vehicle, no insulin, †p<0.05 vs. Vehicle/insulin by two-way ANOVA with Tukey's post hoc test. (FIG. 3E) Western blot analysis of human myotubes treated with SBI-477 for 24 hours was performed to determine the effect on steps of the insulin signaling pathway using specific Akt and IRS-1 phosphorylation sites as endpoints. Insulin treatment (100 nM) for 30 minutes was used as positive control. (FIG. 3F) Quantitation of the western blot data in […] is shown (n=5). *p<0.05 or **p<0.01 vs. Vehicle by one-way ANOVA with Bonferroni post hoc test. The data represent mean±SD.
Cells were lysed in the RIPA buffer containing 1% NP-40, 5 mM Na4P2O7, 1 mM EDTA, 20 mM NaF, 2 mM Na3VO4, 1× cOmplete™ protease inhibitor (Roche) and 1 mM phenylmethylsulfonyl fluoride. […] Protein quantification was performed using FluorChemQ (Alpha Innotech) and normalized to […]-actin or total protein where indicated.

Sequence of SCD-1 (O00767 whole entry, species assumed): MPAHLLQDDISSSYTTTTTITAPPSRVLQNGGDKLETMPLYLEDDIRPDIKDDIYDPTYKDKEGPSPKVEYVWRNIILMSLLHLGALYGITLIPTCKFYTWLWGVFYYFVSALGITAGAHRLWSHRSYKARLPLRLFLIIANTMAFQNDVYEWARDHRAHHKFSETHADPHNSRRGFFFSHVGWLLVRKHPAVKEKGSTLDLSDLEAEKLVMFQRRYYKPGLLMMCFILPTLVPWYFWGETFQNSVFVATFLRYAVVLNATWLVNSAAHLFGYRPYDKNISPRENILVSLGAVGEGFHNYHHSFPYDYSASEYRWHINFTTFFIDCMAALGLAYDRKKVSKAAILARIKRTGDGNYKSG

- Direct inhibition of SCD-1 activity (SCD-1): not found that SBI-477 directly inhibits
- EC50 (rat H9c2 myocytes): ~100 nM
- IC50 [2]: < 1000 nM
SMILES: COc1ccc(-c2csc(NC(=O)c3ccc(OCC(=O)N4CCOCC4)c(OC)c3)n2)cc1 [Cpd. 7, 3-methoxy-N-(4-(4-methoxyphenyl)thiazol-2-yl)-4-(2-morpholino-2-oxoethoxy)benzamide]
- Levels of pS6K (T389) (S6K): reduced
- Gene expression of CD36 [1]: no effect
- AMPK activation (AMPK): activation of AMPK
- ARRDC4 expression (ARRDC4): robust, dose-dependent downregulation
- IRS-1 phosphorylation at serine sites 636/639 [3]: decreased
- Tyrosine phosphorylation of IRS-1 ([3]; absence of insulin): increased
